Reference: ChEMBL document CHEMBL4196215 (J Med Chem, 2018)
≈ marks a conversion by molar mass, not a printed value.

Assays:
[1] = Thermodynamic solubility of the compound by quantitative nitrogen detection assay; type: physicochemical; conditions: read-out: Therm_solubility
[2] = Plasma concentration in CD1 mouse at 10 mg/kg, ip measured after 0.5 hrs by LC-MS/MS analysis; type: ADME, organism-based
[3] = Plasma concentration in CD1 mouse at 10 mg/kg, ip measured after 2 hrs by LC-MS/MS analysis; type: ADME, organism-based
[4] = Plasma concentration in CD1 mouse at 10 mg/kg, ip measured after 4 hrs by LC-MS/MS analysis; type: ADME, organism-based
[5] = Plasma concentration in CD1 mouse at 10 mg/kg, ip measured after 7 hrs by LC-MS/MS analysis; type: ADME, organism-based
Mus musculus [6] = experiment: AUC (0 to 7 hrs) in CD1 mouse at 10 mg/kg, ip measured after 7 hrs by LC-MS/MS analysis; type: ADME, organism-based; design: dose 10 mg/kg, time < 7 hr, route intraperitoneal; conditions: in vivo
[7] = Metabolic stability in CD1 mouse liver microsomes assessed as half life at 1 uM in presence of NADPH by LC-MS/MS analysis; type: ADME, microsome
Mus musculus [8] = experiment: Time at which plasma concentration stays above invitro effective concentration for inhibition of ALDH1A3 in human OVCAR5 cells in CD1 mouse at 10 mg/kg, ip by LC-MS/MS analysis; type: organism-based; conditions: in vivo
Mus musculus [9] = experiment: Time at which plasma concentration stays above invitro effective concentration for inhibition of ALDH1A3 in human PEO1 cells in CD1 mouse at 10 mg/kg, ip by LC-MS/MS analysis; type: organism-based; conditions: in vivo

SMILES	solubility thermodynamic [1] [µM]	t1/2 [7] [min]	also measured
Cc1ccccc1-n1c(SCc2cccc(F)c2)nc2c(cnn2C)c1=O	38 (≈ 14.5 µg/mL)	–	–
Cn1ncc2c(=O)n(Cc3ccccc3)c(SCc3cccc(F)c3)nc21	5 (≈ 1.9 µg/mL)	–	–
O=c1c2cn(C3COC3)nc2nc(SCc2cccc(F)c2)n1-c1ccccc1	5 (≈ 2.04 µg/mL)	–	concentration at 0.5 h [2]: 7600 nM; concentration at 2 h [3]: 5200 nM; concentration at 4 h [4]: 3000 nM; concentration at 7 h [5]: 900 nM; AUC (Mus musculus [6]): 27.8 µM·h
Cn1ncc2c(=O)n(-c3cccc(Cl)c3)c(SCc3cccc(F)c3)nc21	55 (≈ 22 µg/mL)	–	–
Cn1ncc2c(=O)n(-c3ccccc3)c(SCc3cccc(F)c3)nc21	< 0.7	–	–
Cn1ncc2c(=O)n(CCc3ccccc3)c(SCc3cccc(F)c3)nc21	3 (≈ 1.18 µg/mL)	–	–
Cn1cc2c(=O)n(-c3ccccc3)c(SCc3cccc(F)c3)nc2n1	69 (≈ 25.3 µg/mL)	13	–
O=c1c2cnn(C3COC3)c2nc(SCc2cccc(F)c2)n1-c1ccccc1	8 (≈ 3.27 µg/mL)	–	–
O=c1c2cn(CC3COC3)nc2nc(SCc2cccc(F)c2)n1-c1ccccc1	53 (≈ 22.4 µg/mL)	27	concentration at 0.5 h [2]: 5600 nM; concentration at 2 h [3]: 2600 nM; concentration at 4 h [4]: 600 nM; concentration at 7 h [5]: 100 nM; AUC (Mus musculus [6]): 11 µM·h; Time (Mus musculus [8]): 4 h; Time (Mus musculus [9]): 4 h
Cc1ccccc1-n1c(SCc2cccc(F)c2)nc2[nH]ncc2c1=O	2 (≈ 0.733 µg/mL)	9	–
